US20110070326A1, “OREGANO EXTRACT AND ITS COMPONENTS FOR ENHANCING VIGILANCE” (DSM IP ASSETS B.V., priority 2006, published 2011)
Values joined by “and” are separate entries in the source; they are usually repeats but may differ in a detail not shown here. Identical values can stand only once.

Legend:
[1] = test system: mice; experiment: Marble burying test; type: in vivo, mouse; conditions: for NUMBER OF MARBLES COVERED BY SAWDUST Mean ± s.e.m.: 25 marbles, 30-minute test, 15 mice
Procedure: The method applied here follows that described by Broekkamp et al. 1986, supra. Mice (n=15 per treatment group) were individually placed in transparent plastic cages (33×21×18 cm) with 5 cm of sawdust on the floor and 25 marbles (diameter 1 cm) grouped in the centre of the cage. A second, up-tamed, cage served as a lid. The number of marbles covered by sawdust (by at least two-thirds) was counted at the end of the 30-minute test period. Tests were performed by investigators blind to the drug treatment protocol.
Prior to testing, all test cages and marbles were “impregnated” by leaving 10 naive mice in each cage for 15 minutes.
Oregano extract 1 was evaluated at 10, 30 and 60 mg/kg, administered i.p. 30 minutes before the test, and compared with a vehicle control group. Oregano extract 1 was dissolved in a saline solution containing 3% (v/v) DMSO and 3% (v/v) Tween® 80 “vehicle”. The control group were administered vehicle in the same manner, while fluoxetine (32 mg/kg), administered under the same experimental conditions, was used as a reference substance. Data were analyzed by comparing treated groups with vehicle control using unpaired Student's t-tests.

[2] = test system: mouse; experiment: Light Dark Box Test in the mouse; type: in vivo; conditions: 16 mg/kg i.p. −30 min; for NUMBER OF CROSSINGS mean ± s.e.m. / TIME SPENT IN LIGHT COMPARTMENT (s) mean ± s.e.m.: 3-minute test, 15 mice
Description: The method, which detects anxiolytic activity, follows that described by Crawley, 1981 Pharmacol. Biochem. Behav., 15: 695-699. Anxiolytics increase the time spent in the light compartment.
Animals were placed into the light compartment of a 2-compartment box with one half light and open (25×27×27 cm) and the other half dark and closed (20×27×27 cm). The time spent in each compartment, as well as the number of times the animal crosses from one side to the other, is scored during a 3-minute test. 15 mice were studied per group. The test was performed blind.
Oregano extract 1 was evaluated at 3 doses (10, 30 and 60 mg/kg), administered i.p. 30 minutes before the test, and compared with a vehicle control group. Oregano extract 1 was dissolved in a saline solution containing 3% (v/v) DMSO and 3% (v/v) Tween® 80 (“vehicle”). The control group was administered vehicle, venlafaxine (16 mg/kg i.p) was used as comparison substance and clobazam (16 mg/kg i.p) was used as reference substance, all being administered i.p., 30 minutes prior to the test.

[3] = test system: mice; experiment: Porsolt's Forced Swim Test (Behavioral Despair Test), i.p.; type: in vivo, mouse; conditions: 16 mg/kg i.p., −30 min, 15 mice
Procedure: The test, which detects antidepressant activity, was carried out as described by Porsolt et al supra. Mice which are forced to swim in a situation from which they cannot escape rapidly become immobile. Antidepressants decrease the duration of immobility.
Mice were individually placed in cylinders (Height=24 cm, Diameter=13 cm) containing 10 cm water (22° C.) from which they could not escape. The mice were placed in the water for 6 minutes and the duration of immobility during the last 4 minutes was measured.
15 mice were studied per each of the four groups.
Oregano extract 1 was evaluated at 3 doses (10, 30 and 60 mg/kg), administered i.p. 30 minutes before the test, and compared with a control group, administered vehicle in the same manner. The thus administered […] was dissolved in vehicle (saline solution containing 3% (v/v) DMSO and 3% (v/v) Tween® 80). Venlafaxine (16 mg/kg, i.p.), as comparison substance, and imipramine (32 mg/kg, i.p.), as reference compound, were administered under the same experimental conditions.
Data were analyzed by comparing the treated groups with the control group using unpaired Student's t tests and are presented in Table 3.

[4] = Plasma level of free and total carvacrol after oral oregano extract 4 (LC/MS/MS); type: in vivo, rat; conditions: individual animals
Procedure: 4 male and 4 female rats received a single dose of 800 mg of oregano extract 4 per kg body weight by oral gavage, respectively. The application solution was prepared in corn oil at a concentration of 200 mg extract per gram formulation.
The sample analysis was performed with a liquid chromatography—tandem mass spectrometry (LC/MS/MS) system, using a column switching system for online cleaning and desalting of the samples.
After addition of internal standard (D2-thymol) and protein precipitation (in case of “free” analyte) or pre-digesting by β-glucuronidase followed by protein precipitation (in case of “total” analyte), the samples were injected on a Waters XTerra™ MS C18 guard-column used as purification column, then transferred onto a Waters XTerra™ C18 column. Detection was performed using tandem mass spectrometry in MRM mode.
Calibration and quality control samples were prepared in 5% Albumin bovine serum solution and human plasma.

[5] = test system: hippocampal serotonin (5HT) levels; experiment: Hippocampal serotonin levels by in vivo microdialysis; parameters: species or system rat; conditions: cumulative 5HT in dosing period, n = 5-6 rats
Procedure: Male Sprague-Dawley rats (250-320 g) were housed in groups of 4-5 under conditions of controlled temperature (21±2° C.) and humidity (55±10%) with free access to food and water (lights on 07.00-19.00). Rats were anaesthetised using chloral hydrate (400 mg/kg i.p.) and a single microdialysis probe (BASi type MD2200, 2 mm membrane, 30,000 dalton cut-off) implanted in the dorsal hippocampus using a stereotaxic frame at the following coordinates (rostro-caudal—4.5 mm; media-lateral—2.5 mm; dorso-ventral—4.5 mm from bregma and dura surface according to Paxinos & Watson 6) and fixed in position with dental cement. Body temperature was maintained at 36° C. using a heating pad and monitored via a digital rectal thermometer. The microdialysis probe was perfused with artificial cerebrospinal fluid (aCSF) at 1 μl/min and extracellular monoamine levels determined by collection of perfusate samples every 15 min and assayed using high-performance liquid chromatography (HPLC) with electrochemical detection.
The HPLC mobile phase (0.5 mM EDTA, 0.1M monochloroacetic acid pH 3.1, 0.15 g/L sodium octyl sulphate, 5% acetonitrile, 0.7% tetrahydrofuran) was pumped through the system at 70 μl/min. Monoamines were separated using a reverse-phase 1×100 mm ODS 3 mm microbore column with 5 μl injection loop and detected using a Epsilon electrochemical detector (BAST) with a glassy carbon electrode set at +650 mV versus Ag/AgCl reference electrode. Dialysate peaks were identified by comparing peak elution times with reference standards and quantified according to measurement of peak area using linear regression analysis. The detection limits for 5HT and SHIAA were defined as the sample amount producing a peak area twice that of the background noise per unit time and were approximately 0.1 fmol/sample in both cases. […]
For routine assay, two rats were prepared of which one was used to test the oregano extract and the other a control (vehicle) sample. […] Data from replicate studies for each compound are therefore expressed as % Basal level, as is normal practice for microdialysis studies. […]

Compound: COc1ccc(C(CN(C)C)C2(O)CCCCC2)cc1 (stereo not drawn) [Venlafaxine]
- NUMBER OF MARBLES COVERED BY SAWDUST % change from control ([1]; 16 mg/kg i.p. −30 min): −98%
- NUMBER OF MARBLES COVERED BY SAWDUST Mean ± s.e.m. ([1]; 16 mg/kg i.p., −30 min): 0.5 ± 0.3
- NUMBER OF MARBLES COVERED BY SAWDUST % change from control ([1]; 16 mg/kg i.p., −30 min, listed as venlafaxine): −98%
- NUMBER OF CROSSINGS % change from control [2]: −6%
- TIME SPENT IN LIGHT COMPARTMENT % change from control [2]: 0%
- NUMBER OF CROSSINGS mean ± s.e.m. [2]: 4.4 ± 0.9
- TIME SPENT IN LIGHT COMPARTMENT (s) mean ± s.e.m. [2]: 55.2 ± 9.3 s
- DURATION OF IMMOBILITY % change from control [3]: −51%
- DURATION OF IMMOBILITY (s) Mean ± s.e.m. [3]: 80.1 ± 11.1 s
- DURATION OF IMMOBILITY % change from control ([3]; listed as venlafaxine): −51%

Compound: Cc1ccc(C(C)C)cc1O [Carvacrol]
- Free Carvacrol (ng/mL) in plasma ([4]; female rats, 0.5 h after single 800 mg/kg oregano extract 4 by oral gavage in corn oil): 5120 ng/mL and 4090 ng/mL and 50100 ng/mL and 30.9 ng/mL
- Free Carvacrol (ng/mL) in plasma ([4]; female rats, 1 h after single 800 mg/kg oregano extract 4 by oral gavage in corn oil): 6050 ng/mL and 3610 ng/mL and 192 ng/mL
- Free Carvacrol (ng/mL) in plasma ([4]; female rats, 2 h after single 800 mg/kg oregano extract 4 by oral gavage in corn oil): 840 ng/mL and 1360 ng/mL and 64.3 ng/mL
- Free Carvacrol (ng/mL) in plasma ([4]; female rats, 3 h after single 800 mg/kg oregano extract 4 by oral gavage in corn oil): 228 ng/mL and 174 ng/mL
- Free Carvacrol (ng/mL) in plasma ([4]; female rats, 4 h after single 800 mg/kg oregano extract 4 by oral gavage in corn oil): 246 ng/mL and 102 ng/mL and 50.3 ng/mL
- Free Carvacrol (ng/mL) in plasma ([4]; female rats, 6 h after single 800 mg/kg oregano extract 4 by oral gavage in corn oil): 135 ng/mL and 91.9 ng/mL and 48.3 ng/mL
- Free Carvacrol (ng/mL) in plasma ([4]; female rats, 8 h after single 800 mg/kg oregano extract 4 by oral gavage in corn oil): 159 ng/mL and 1630 ng/mL and <LOQ = 10.0 ng/mL
- Free Carvacrol (ng/mL) in plasma ([4]; female rats, 24 h after single 800 mg/kg oregano extract 4 by oral gavage in corn oil): 127 ng/mL and 8.91 ng/mL and <LOQ = 10.0 ng/mL
- concentration at 3 h ([4]; female, rat, plasma, po, 800 mg/kg, Free Carvacrol (ng/mL) in plasma, female rats, 3 h after single 800 mg/kg oregano extract 4 by oral gavage in corn oil): 0.128 µg/mL
- Free Carvacrol (ng/mL) in plasma ([4]; male rats, 0.5 h after single 800 mg/kg oregano extract 4 by oral gavage in corn oil): 1530 ng/mL and 103 ng/mL and 55.9 ng/mL and 1320 ng/mL
- Free Carvacrol (ng/mL) in plasma ([4]; male rats, 1 h after single 800 mg/kg oregano extract 4 by oral gavage in corn oil): 1150 ng/mL and 1820 ng/mL
- Free Carvacrol (ng/mL) in plasma ([4]; male rats, 2 h after single 800 mg/kg oregano extract 4 by oral gavage in corn oil): 166 ng/mL and 584 ng/mL and 199 ng/mL
- Free Carvacrol (ng/mL) in plasma ([4]; male rats, 3 h after single 800 mg/kg oregano extract 4 by oral gavage in corn oil): 51.5 ng/mL and 58.4 ng/mL and 1580 ng/mL
- Free Carvacrol (ng/mL) in plasma ([4]; male rats, 4 h after single 800 mg/kg oregano extract 4 by oral gavage in corn oil): 30.4 ng/mL and 40 ng/mL and 316 ng/mL
- Free Carvacrol (ng/mL) in plasma ([4]; male rats, 6 h after single 800 mg/kg oregano extract 4 by oral gavage in corn oil): 83.4 ng/mL and 980 ng/mL and 100 ng/mL
- Free Carvacrol (ng/mL) in plasma ([4]; male rats, 8 h after single 800 mg/kg oregano extract 4 by oral gavage in corn oil): 156 ng/mL and 140 ng/mL
- Free Carvacrol (ng/mL) in plasma ([4]; male rats, 24 h after single 800 mg/kg oregano extract 4 by oral gavage in corn oil): <LOQ = 10.0 ng/mL
- concentration at 1 h ([4]; male, rat, plasma, po, 800 mg/kg, Free Carvacrol (ng/mL) in plasma, male rats, 1 h after single 800 mg/kg oregano extract 4 by oral gavage in corn oil): 1.79 µg/mL
- concentration at 8 h ([4]; male, rat, plasma, po, 800 mg/kg, Free Carvacrol (ng/mL) in plasma, male rats, 8 h after single 800 mg/kg oregano extract 4 by oral gavage in corn oil): 0.185 µg/mL
- concentration at 24 h ([4]; male, rat, plasma, po, 800 mg/kg, Free Carvacrol (ng/mL) in plasma, male rats, 24 h after single 800 mg/kg oregano extract 4 by oral gavage in corn oil): 0.0681 µg/mL

Compound: CNCCC(Oc1ccc(C(F)(F)F)cc1)c1ccccc1 (stereo not drawn) [Fluoxetine]
- NUMBER OF MARBLES COVERED BY SAWDUST % change from control ([1]; 32 mg/kg i.p., −30 min): −93%
- NUMBER OF MARBLES COVERED BY SAWDUST Mean ± s.e.m. ([1]; 32 mg/kg i.p., −30 min): 1.4 ± 1.0
- 5-HT LEVEL (% basal) Mean ± s.e.m. ([5]; 3 mg/kg i.p., injection 150 min post-surgery): 85 ± 4 % basal
- 5-HT LEVEL (% basal) Mean ± s.e.m. ([5]; 10 mg/kg i.p., injection 210 min post-surgery): 131 ± 9 % basal
- 5-HT LEVEL (% basal) Mean ± s.e.m. ([5]; 30 mg/kg i.p., injection 270 min post-surgery): 160 ± 7 % basal

Compound: CN1C(=O)CC(=O)N(c2ccccc2)c2cc(Cl)ccc21 [Clobazam]
- NUMBER OF CROSSINGS % change from control [2]: +68%
- TIME SPENT IN LIGHT COMPARTMENT % change from control [2]: +114%
- NUMBER OF CROSSINGS mean ± s.e.m. [2]: 7.9 ± 0.9
- TIME SPENT IN LIGHT COMPARTMENT (s) mean ± s.e.m. [2]: 118.4 ± 3.4 s
